For series [1], the system named is dormant HSCs (KLS CD150+CD48-CD34-). The experiment in a line: BrdU pulse-chase, label-retaining (dormant) long-term HSCs. Format: in vivo, mice. The procedure:
After a period of permanent BrdU labeling for 10 days, mice were kept without BrdU for 70 days. 14 days before the analysis, the mice were either treated three times with polylC or with PBS. 10 days later (and 70 days after the last BrdU injection) three HSC populations containing an increasing percentage of dormant HSCs were isolated and analysed for the presence of BrdU+label-retaining cells (LRCs), which represent dormant HSCs.
C57B1/6 mice and IFNAR−/− mice were given BrdU (0.8 mg/ml; Sigma) in the drinking water for 10 days. After this BrdU pulse, mice were left for a chase of 10 weeks. Then, mice were twice injected with IFNα at a concentration of 10×10^3 U/mouse each (48 h gap between the 2 injections) or left untreated. BrdU uptake was then analyzed 10 days after the last IFNα injection. After this BrdU pulse-chase experiment in wild-type mice, about 15% of the long-term HSCs (KLS CD150+CD48−CD34−) are still labeled with BrdU (label retaining cells-LRCs). […] This was not the case with long-term HSCs lacking the IFN-receptor (in IFNAR−/− mice) showing that this effect is indeed mediated by Interferon signaling (FIG. 1D).

The subject of series [2] is hematopoietic stem cells (HSCs) (lineage-CD117+Sca1+). Nature of the series: BrdU uptake (proliferation rate) of KLS hematopoietic stem cells in treated mice. It is filed as in vivo. The procedure: Wild-type C57B1/6 mice were treated with IFNα which was obtained as decribed in the literature (Le Bon et al., 2003, Nat. Immunol. 4(10):1009-15). at 0 h and 24 h, respectively with 10×10^3 U/mouse, and were then treated at 36 h with Bromodeoxyuridine (BrdU) at 360 μg/mouse for cell detection. Mice which were only injected with BrdU were used as control. Bone marrow was then taken from the long bones of hindlegs and prepared by standard procedures (Wilson et al., 2004, Genes & Dev 18; 2747-2763). Bone marrow cells were then stained with a cocktail of conjugated antibodies (Bioscience) against mice lineage markers (CD4, CD8, CD11b, Gr1, Ter119, B220), CD117 (c-kit), Sca1 (Ly-6A/E), CD34, CD135, CD48 or CD150). Cells were then fixed. BrdU uptake was analyzed using the BrdU staining kit (BD Biosciences).
Five and six-color flurorescent-activated cell sorting (FACS) analysis (FITC, PE, PE-Cy5, PE-Cy7, APC, APC-Cy7) were performed using a FACS Canto flow cytometer (Becton Dickinson) as described in the literature (Wilson et al., 2004, above). Data were analyzed using FlowJo (Tree Star, Inc.; Ashland, USA software).
Percentages of BrdU positive KLS-HSCs cells (lineage CD117+Sca1+) were determined as a measurement of the proliferation rate of these cells. The same BrdU analyses were performed on subpopulations of HSCs.

The subject of series [3] is HSCs. The experiment in a line: Survival of mice under repeated 5FU after polyIC priming (IFN alpha pulse). Format: in vivo. The procedure:
Wild-type C57B1/6 and IFNAR−/− mice were treated as follows: mice were injected with […] mouse polyIC (Invivogen) twice (polyIC is a double stranded RNA mimetic strongly inducing IFNα/b), the lag time between the two injections being 48 h. PolyIC injections are used in this experiment as IFN alpha “pulse”. Mice that were only treated with 5FU without priming injections of polyIC were used as controls.
5-Fluoro-uracil (5FU) was injected (150 mg/kg, Sigma) at different times after the last polyIC injection: 0 h (same time as last polyIC injection); 24 h, 48 h, 72 h, 5 days and 7 days. The proliferation rate of cells at time of 5FU injection was analyzed by BrdU analysis of KLS cells as described in the above examples. Single 5FU injections were repeated every 7 days. The survival of the mice was monitored for a period of 20 days.

For series [4], the system named is HSCs. The experiment in a line: Mixed bone marrow chimeras (wt / IFNAR-/-), BrdU uptake in LSK cells. It is filed as in vivo, mice. Particulars: IFNα 10×10^3 U/mouse. The procedure: The different mice were treated with IFNα (10×103 U/mouse) in comparison with untreated wt mice (C) as described in Example 3. FIG. 2B represents the BrdU uptake in wt (CD45.1) and IFNAR−/− (CD45.2) LSK cells in the mixed bone marrow chimeras in response to treatment with IFNα.
To investigate whether HSCs respond directly to IFNα in vivo, mixed bone marrow “chimeras” comprising various ratios of wild-type (wt) and IFNAR−/− (IFNRKO) bone marrow cells were treated with IFNα (10×10^3 U/mouse) in comparison with untreated wt mice (C) (FIG. 2A).

These results are taken from patent publication US8329160B2, “Interferon alpha sequential regimen for treating cancers” (HI-Stem, priority 2007, dated 2012).

As for polyIC [reference compound], the “percentage of BrdU+-LRCs in HSC populations” value in series [1] (mice treated three times with polyIC vs PBS, 70 days after last BrdU) is given as “strongly reduced”. Besides, the “increase of HSC proliferation rate (BrdU uptake)” value in series [2] (IFNAR-/- mice, polyIC once at 10 μg/g) is “not seen”. The “effect of polyIC priming on survival under 5FU” value in the series on HSCs [3] (IFNAR-/- mice) is listed as “no effect on the survival”. The “survival of mice (lethality by elimination of all HSCs)” value in the series with HSCs [3] (wild-type C57B1/6, polyIC twice (48 h apart) prior to 5FU 150 mg/kg repeated every 7 days, 20 days monitoring) is given as “efficient lethality”.
Regarding `O=c1[nH]cc(F)c(=O)[nH]1` [5FU, 5-Fluoro-uracil], the “survival of mice under repeated 5FU treatment without polyIC priming” value in the series on HSCs [3] (5FU 150 mg/kg every 7 days, 20 days) is given as “do survive”.
With IFNα, in the series on HSCs [4], the “activation of HSCs in mixed wt / IFNAR-/- bone marrow chimeras” value is “direct and an indirect activation”. For the same compound, in series [1] (IFNAR-/- mice (HSCs lacking the IFN-receptor)), the “reduction of LRC+ long-term HSCs (activation of dormant HSCs)” value is “not the case”. Also, the “number of LRC+ long-term HSCs (BrdU label retaining cells)” value in series [1] (wild-type mice, 2 injections IFNα 10×10^3 U/mouse 48 h apart, analysed 10 days after last injection, untreated about 15% LRC) is given as “dramatically reduced”. Besides, the “dose dependence of increase in proliferation” value in series [2] (different doses of IFNα (U/g of mouse)) is listed as “dose-dependent”. In addition, in series [2] (wild-type C57B1/6 mice, after IFNα treatment), the “proliferation in subpopulations of HSCs (long-term HSCs, short-term HSCs, MPPs)” value was “increase in proliferation in all subpopulations of HSCs”. For the same compound, the “proliferation rate of HSCs (percentage of BrdU positive KLS cells)” value in series [2] (wild-type C57B1/6 mice, IFNα 10×10^3 U/mouse at 0 h and 24 h, BrdU at 36 h, untreated control 23%) stood at 63%. In series [2] (wild-type mice, after IFNα treatment), the “absolute cell numbers of HSCs” value is on record as “increase in absolute cell numbers”.
